The series can be described thus: Iron dialysability assay (in vitro dialysable iron from fortified dough). The note with it: dough from whole-grain wheat flour fortified with 50 mg/kg iron; normalized to dough fortified with ferrous sulfate; means of 4-5 experiments; ** = significantly different from ferrous sulfate (p < 0.05).

Method: The crude mass was aliquoted and small lumps were formed (10 g±0.5 g) which were used for the iron dialysability assay.
All glassware and paddles were cleaned with 10% HNO3 (24 hours) and rinsed five times with Milli-Q® water. […] The resulting suspension was poured into a VanKel Vial and the blender beaker was rinsed twice with Milli-Q® water (20 mL) and the rinse water was added to the suspension. The stirring speed of the paddle was adjusted to 200 rpm at 37° C. […] The pH of the suspension was adjusted to 2.0 with 6N HCl and a Pepsin-HCl solution (5 mL) was added. […] A clean dialysis membrane (20 cm, Spectra/Por7, Molecular weight cut-off 8 kD) was filled with a determined amount of 0.1M NaCO3 solution and adjusted to a total volume of 25 mL with Milli-Q® water. The dialysis bag was placed in the Erlenmeyer flask containing aliquot (iii), and shaken at 37° C. at 100 beats/min for 30 minutes while the pH was being monitored. […] After that time, the contents of the dialysis bag were recovered for quantitative analysis of the iron content.
Total iron content of yeast and wheat flour was determined by inductively coupled plasma atomic emission spectrometry. […] The emission of the individual elements was measured at specific wavelengths and concentrations were quantified from standard solutions. […]

Consider `O=S(=O)([O-])[O-].[Fe+2]` [Iron sulphate], for which the Relative availability was found to be 1.0.

The values are drawn from patent publication US20060078594A1, “Iron complex” (Conopco, Inc., d/b/a UNILEVER, priority 2004, published 2006).
